Experimental findings from PubChem BioAssay AID1259371 (The Scripps Research Institute Molecular Screening Center, 2018) are described below.

Structures are written as SMILES. Activity calls are given as the source filed them. The rule behind the calls is not given here.

The target of the assay is Microphthalmia-associated transcription factor (Homo sapiens) (UniProt O75030). Kind of assay: MITF inhibitors, potency by titration, dose response, biochemical, AlphaScreen, human (AID 1259371). The settings on record: AlphaScreen biochemical MITF assay, signal inhibition. On the technique in general: Bead proximity is the source of the signal in Alpha formats.
Sequence of Microphthalmia-associated transcription factor (Homo sapiens) (O75030 whole entry, looked up): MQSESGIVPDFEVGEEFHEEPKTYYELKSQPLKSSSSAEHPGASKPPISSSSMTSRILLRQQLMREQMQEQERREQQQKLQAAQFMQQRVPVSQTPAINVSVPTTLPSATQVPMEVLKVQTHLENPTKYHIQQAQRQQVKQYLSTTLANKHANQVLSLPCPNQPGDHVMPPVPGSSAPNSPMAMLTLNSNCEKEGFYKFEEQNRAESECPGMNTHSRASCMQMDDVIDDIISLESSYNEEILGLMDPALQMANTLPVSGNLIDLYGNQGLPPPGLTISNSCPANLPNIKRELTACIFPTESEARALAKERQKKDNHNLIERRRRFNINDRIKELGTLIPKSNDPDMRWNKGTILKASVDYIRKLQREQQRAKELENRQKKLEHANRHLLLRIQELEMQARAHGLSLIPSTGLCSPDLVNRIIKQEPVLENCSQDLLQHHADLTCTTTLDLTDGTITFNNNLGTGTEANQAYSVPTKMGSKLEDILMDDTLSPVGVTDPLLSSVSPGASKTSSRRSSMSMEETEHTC
In the case of `O=C(O)c1cc2ncc(-c3n[nH]c(-c4cnc5cc(C(=O)O)nn5c4)c3[N+](=O)[O-])cn2n1`, the IC50 was 641 nM. In the case of `CCC12c3ccccc3C(c3ccccc31)C1C(=O)NC(=O)C12` (centres undefined) it was > 2160 nM (inactive). Consider `O=C(O)c1cc(-c2ccco2)nc2ccccc12`, for which the IC50 result is “inactive”. For `Cc1ccc(CCC(=O)Nc2ccc(-c3cn4c5c(nnc4n3)CCCC5)cc2)o1`, the IC50 was 306 nM. On to `CC(C)NC(=O)c1cccc(NC(=O)Nc2ccc(-c3ncnc4[nH]cc(Cl)c34)cc2)c1`, for which the IC50 was 676 nM.

`NS(=O)(=O)c1ccc(N=Cc2cc3c(cc2[N+](=O)[O-])OCO3)cc1`: the IC50 entry was “inactive”. Take `C[C@H]1C(=O)N2CCN(C(=O)NC3CCCCC3)C[C@@H]2C(=O)N1C`: the IC50 entry was “inactive”. Then `CCOc1cccc(OCC)c2c(C)[n+](C)c(C)c1-2`, with 58.2 nM; and `CCN(CC)C(=S)NC(=O)/C=C/c1ccco1`, with 89.4 nM; and `O=C(O)c1cc(C(=O)O)cc(-c2ccc(/C=N\n3cnnc3)o2)c1`, with “inactive”. For the compound `CCOc1ccccc1N1CCN(Cc2cc(OC)c(O)c([N+](=O)[O-])c2)CC1`, the IC50 was > 6480 nM (inactive). As to `N=C1S/C(=C\c2ccco2)C(=O)N1c1nonc1N`, the IC50 is 34 nM. As for `O=C(O)CCCNC(=O)/C=C/c1ccco1`, the IC50 is > 2160 nM (inactive). In the case of `COc1cc(N2CCOCC2)ccc1Nc1cc(Nc2ccccc2-n2cccn2)c(C(F)(F)F)cn1` it was “inactive”; in that of `O=c1[nH]cnc2nc(-c3ccco3)c(-c3ccco3)nc12`, 79.7 nM; in that of `C[C@@H](O)[C@@H]1NC(=O)[C@H]2CN(C(=O)NC3CCCCC3)CCN2C1=O`, “inactive”. As for `c1ccc2c(c1)OCC(c1nc3c(-c4ccncc4)cncc3[nH]1)O2` (centres undefined), the IC50 was > 2160 nM (inactive). With `COCCCNC(=O)/C(C#N)=C/c1ccc(OCC(=O)O)c(OC)c1`, the IC50 result was “inactive”. In the case of `NC(=O)COC(=O)c1cc2c(s1)CCC2` it was “inactive”. In the case of `C[C@@H]1NC(=O)[C@H]2CN(C(=O)NC3CCCCC3)CCN2C1=O` it was “inactive”; in that of `O=C(O)c1cccc(N2C(=O)CC(Nc3ccc(N4CCOCC4)cc3)C2=O)c1` (centres undefined), 242 nM; in that of `Cc1cc2ncn(Cc3noc(-c4ccco4)n3)c2cc1C`, > 6480 nM (inactive). In the case of `O=C1NC(=S)N/C1=C\c1ccc([N+](=O)[O-])o1` it was 239 nM; in that of `CCN1CCN(CCOCCOc2ccc(F)cc2)CC1`, > 6480 nM (inactive); in that of `CC(C)[C@@H]1NC(=O)[C@H]2CN(C(=O)NC3CCCCC3)CCN2C1=O`, > 2160 nM (inactive). As for `CCOC(=O)C1C2NC(=S)N(c3ccc(CC)cc3)C1(C)Oc1c(OCC)cccc12` (centres undefined), the IC50 was > 5530 nM (inactive). Then `CN1CC(=O)N2CCN(C(=O)NC3CCCCC3)C[C@@H]2C1=O`, with “inactive”; and `CCc1ccc(NC(=O)CCc2nc(C3=CCN(C)CC3)no2)cc1`, with “inactive”. As to `O=C(Nc1ccc(N2CCOCC2)cc1)c1ccnc(Nc2ncccn2)c1`, the IC50 entry is “inactive”.

With `Cc1cccc(NC(=O)c2ccc(NS(=O)(=O)c3ccc4[nH]cc(C(=O)O)c(=O)c4c3)cc2)c1`, the IC50 is > 1580 nM (inactive).

In the case of `O=[N+]([O-])c1cc(C=Nc2ccc(N3CCOCC3)cc2)c(O)c([N+](=O)[O-])c1`, the IC50 was 753 nM. `COc1cc(C(=O)N2CCN(Cc3ccccc3C)CC2)cc(OC)c1OC`: the IC50 is > 5620 nM (inactive). Consider `C/C(=N\NC(=O)Cc1cc(=O)[nH][nH]1)c1ccco1`, for which the IC50 entry was “inactive”. Then `O=C(c1ccc(=O)oc1)N1CCc2ccccc21`, with “inactive”; and `C[C@H](O)[C@H]1NC(=O)[C@H]2CN(C(=O)NCc3ccccc3)CCN2C1=O`, with “inactive”. Then `CN(C)c1ccc(O)c2c1C[C@H]1C[C@H]3[C@H](N(C)C)C(=O)C(C(N)=O)=C(O)[C@@]3(O)C(=O)C1=C2O`, with 29.7 nM; and `CC(=O)Nc1ccc(N2C(=O)c3ccccc3C2(O)Cc2ccccc2)cc1` (centres undefined), with > 6480 nM (inactive); and `CC[C@@H]1NC(=O)[C@H]2CN(C(=O)NCc3ccccc3)CCN2C1=O`, with 436 nM.

As to `COc1ccc2nc(-c3ccco3)c(-c3ccco3)nc2c1`, the IC50 entry is “inactive”.

Regarding `O=C(Nc1ccc(C(=O)Nc2ccc(C(=O)Nc3ccc(S(=O)(=O)O)c4cc(S(=O)(=O)O)cc(S(=O)(=O)O)c34)cc2)cc1)Nc1ccc(C(=O)Nc2ccc(C(=O)Nc3ccc(S(=O)(=O)O)c4cc(S(=O)(=O)O)cc(S(=O)(=O)O)c34)cc2)cc1`, the IC50 was 986 nM. Then `N[C@@H](C(=O)N[C@@H]1C(=O)N2C(C(=O)O)=C(CSC3CNNN3)CS[C@H]12)c1ccc(O)cc1` (some centres undefined) (tested in a mixture with another compound), with 324 nM; and `O=C(c1ccc2nc(-c3ccco3)c(-c3ccco3)nc2c1)N1CCSCC1`, with 222 nM. For the compound `COc1cccc(CN2CCN(C(=O)c3ccc(F)cc3)CC2)c1`, the IC50 result is “inactive”.

With `O=C(OC1CCOC1=O)c1ccc(S(=O)(=O)NCc2ccco2)cc1` (centres undefined), the IC50 was > 2370 nM (inactive). In the case of `COc1ccc(/C=C2\N=C(c3ccc4c(c3)OCO4)OC2=O)cc1Cl` it was 757 nM; in that of `CC[C@@H]1NC(=O)[C@H]2CN(C(=O)NC3CCCCC3)CCN2C1=O`, 270 nM; in that of `O=C1OC(c2cc(C3=N/C(=C\c4ccccc4)C(=O)O3)cc(C3=N/C(=C/c4ccccc4)C(=O)O3)c2)=N/C1=C\c1ccccc1`, 819 nM.

`C=C1C(C(=O)NCc2ccco2)C1C(=O)NCc1ccco1` (centres undefined): the IC50 is 573 nM. As for `Nc1ccc(C(=O)O)c(O)c1`, the IC50 was 63.5 nM.

Turning to `Cc1nc(C)n(-c2ccc(Nc3cc(-n4cc(N(c5cccnc5)c5cccnc5)cn4)ccn3)cc2)n1`, the IC50 was 864 nM.

Consider `O=C(O)c1cccc2c1C(=O)N(c1ccccc1)C2`, for which the IC50 entry is “inactive”.

In the case of `O=C(Nc1ccc(N2CCOCC2)cc1)c1ccc2nc(Nc3ccccn3)sc2c1`, the IC50 was 537 nM. In the case of `COc1cc(N2CCOCC2)ccc1Nc1cc(NC(C)(C)c2ccccc2)c(C(F)(F)F)cn1` it was “inactive”; in that of `Cc1ccc(/C(C#N)=C\c2ccco2)cc1`, “inactive”; in that of `NC(=O)c1cccc(-c2cccs2)c1`, “inactive”.

In the case of `CN(C)CCn1nnnc1SCC1=C(C(=O)O)N2C(=O)[C@@H](NC(=O)Cc3csc(N)n3)[C@H]2SC1`, the IC50 is 215 nM. Then `CC(=O)NS(=O)(=O)c1ccc(NC(=O)c2ccc([N+](=O)[O-])o2)cc1`, with “inactive”. In the case of `O=C1N[C@H](Cc2ccccc2)C(=O)N2CCN(C(=O)NCc3ccccc3)C[C@H]12` it was “inactive”. Take `Oc1ccc(CCNc2cc(-c3cccs3)ncn2)cc1`: the IC50 is > 6700 nM (inactive). For `Cc1cc(CSC(=N)N)c(O)c(C)n1`, the IC50 is 533 nM. Consider `CCS(=O)(=O)NCC(c1cccs1)S(=O)(=O)c1ccc(C)cc1` (centres undefined), for which the IC50 was 804 nM.

With `O=C(NCCO)c1cccc(-c2cccs2)c1`, the IC50 result was “inactive”. Turning to `CC1=C(C#N)C(c2cc3c(cc2[N+](=O)[O-])OCO3)C2=C(CCCC2=O)N1` (centres undefined), the IC50 entry is “inactive”. In the case of `O=c1c2ccccc2nc(-c2ccccc2)n1-c1ccccc1O` it was > 6500 nM (inactive); in that of `COc1cccc(CC(=O)Nc2nnc(-c3ccco3)c(-c3ccco3)n2)c1`, 113 nM. In the case of `NC(=O)C1CCN(C(=O)c2cc(-c3ccco3)nc3ccccc23)CC1` it was 45.3 nM; in that of `O=C(c1ccncc1)N1C2C=CC(C2)C1(C(F)(F)F)C(F)(F)F` (centres undefined), “inactive”; in that of `C/C(=N\Nc1ccc(S(=O)(=O)O)cc1)c1ccc([N+](=O)[O-])o1`, > 2160 nM (inactive).

For `O=C(COc1ccccc1C(=O)OC1CCCC1=O)Nc1cccc(C(F)(F)F)c1` (centres undefined), the IC50 result is “inactive”. For `CN(N=O)c1cc(O)ccc1O`, the IC50 is 98.7 nM.

With `CCOC(=O)c1cc(N2C(=O)C3C4C=CC(C4)C3C2=O)ccc1Cl` (centres undefined), the IC50 entry is “inactive”. Then `C[C@H]1C(=O)N2CCN(C(=O)NCc3ccccc3)C[C@@H]2C(=O)N1C`, with “inactive”; and `O=C(O)/C=C/c1ccc([N+](=O)[O-])o1`, with “inactive”; and `S=c1[nH]nc(-c2ccco2)n1/N=C/C=C/c1ccco1`, with 5.3 nM. In the case of `C/C(=N\Nc1ccc(S(=O)(=O)O)cc1)c1cccc(Br)c1` it was “inactive”. In the case of `O=C(NC1CCCCC1)N1CCN2C(=O)[C@@H]3C[C@@H](O)CN3C(=O)[C@H]2C1` it was “inactive”.

With `O=C(c1ccc([N+](=O)[O-])cc1)N1CCN(Cc2cccc3ccccc23)CC1`, the IC50 is > 5480 nM (inactive). In the case of `CCN(CCN(C)C)Cc1ccc(F)cc1` it was > 6480 nM (inactive); in that of `COC(=O)c1ccc(=O)c2nc3/c(=C/O)c(O)cc(=O)c3[nH]c12`, 259 nM. As for `O=C(CCCCC1SCC2NC(=O)NC21)NC1(c2ccc(F)cc2)CCCC1` (centres undefined), the IC50 entry was “inactive”. Then `O=C1N[C@H](Cc2ccccc2)C(=O)N2CCN(C(=O)NC3CCCCC3)C[C@H]12`, with 873 nM; and `COc1cc(OC)c(CN2CCCC(O)C2)cc1Br` (centres undefined), with > 6480 nM (inactive); and `Nc1cc2c(S(=O)(=O)O)cc(S(=O)(=O)O)cc2cc1S(=O)(=O)O`, with > 6480 nM (inactive). In the case of `Cc1[nH][nH]c(=O)c1C(c1ccccc1OCc1ccc(Br)cc1)c1c(C)[nH][nH]c1=O` it was “inactive”; in that of `Cc1cc(/C=C2/C=CC(=O)O2)oc1C`, 651 nM; in that of `O=C1N[C@@H](COCc2ccccc2)C(=O)N2CCN(C(=O)NCc3ccccc3)C[C@H]12`, “inactive”. Consider `C[C@H]1NC(=O)[C@H]2CN(C(=O)NCc3ccccc3)CCN2C1=O`, for which the IC50 entry was “inactive”.

Consider `NC(=O)c1ccc(N=Cc2cc3c(cc2[N+](=O)[O-])OCO3)cc1`, for which the IC50 result is “inactive”. As to `O=C1N[C@@H](Cc2ccc(O)cc2)C(=O)N2CCN(C(=O)NCc3ccccc3)C[C@H]12`, the IC50 is > 2160 nM (inactive).

What is called IC50 is the point on the concentration scale where inhibition reaches its midpoint.
